Assay results published in ChEMBL document CHEMBL4376816, “Discovery of the Oral Leukotriene C4 Synthase Inhibitor (1S,2S)-2-({5-[(5-Chloro-2,4-difluorophenyl)(2-fluoro-2-methylpropyl)amino]-3-methoxypyrazin-2-yl}carbonyl)cyclopropanecarboxylic Acid (AZD9898) as a New Treatment for Asthma” (J Med Chem, 2019).
pIC50: −log10 of the molar value. Values after ≈ are worked out from the molar mass of the structure shown. Active and inactive are the calls of the source. No cut-off for these calls is given here.

What was measured:
Blood [1] = test: Preservation of LXA4 level in calcium ionophore A23187-stimulated asthmatic human whole blood preincubated for 30 mins followed by calcium ionophore A23187 stimulation and measured after 60 mins by LC-MS analysis; type: functional, tissue-based
[2] = Genotoxicity in Salmonella typhimurium by Ames test; type: toxicity; details: salmonella enterica subsp. enterica serovar typhimurium
[3] = Clearance in Beagle dog at 1 mg/kg, iv infusion or 2 mg/kg, po via gavage after 48 hrs; type: ADME, organism-based, Canis lupus familiaris; details: in vivo
[4] = Oral bioavailability in Han Wistar rat at 1 mg/kg after 24 hrs; type: ADME, organism-based; details: in vivo
[5] = Volume of distribution at steady state in Han Wistar rat at 0.5 mg/kg, iv or 1 mg/kg, po after 24 hrs; type: ADME, organism-based; details: in vivo, read-out: Vdss
Cytochrome P450 1A2 = biological target: T1, Cytochrome P450 1A2 (Homo sapiens, UniProt P05177); test: Inhibition of recombinant human CYP1A2 using coumarin based substrate by fluorescence assay; type: ADME
T1 sequence (P05177 whole entry): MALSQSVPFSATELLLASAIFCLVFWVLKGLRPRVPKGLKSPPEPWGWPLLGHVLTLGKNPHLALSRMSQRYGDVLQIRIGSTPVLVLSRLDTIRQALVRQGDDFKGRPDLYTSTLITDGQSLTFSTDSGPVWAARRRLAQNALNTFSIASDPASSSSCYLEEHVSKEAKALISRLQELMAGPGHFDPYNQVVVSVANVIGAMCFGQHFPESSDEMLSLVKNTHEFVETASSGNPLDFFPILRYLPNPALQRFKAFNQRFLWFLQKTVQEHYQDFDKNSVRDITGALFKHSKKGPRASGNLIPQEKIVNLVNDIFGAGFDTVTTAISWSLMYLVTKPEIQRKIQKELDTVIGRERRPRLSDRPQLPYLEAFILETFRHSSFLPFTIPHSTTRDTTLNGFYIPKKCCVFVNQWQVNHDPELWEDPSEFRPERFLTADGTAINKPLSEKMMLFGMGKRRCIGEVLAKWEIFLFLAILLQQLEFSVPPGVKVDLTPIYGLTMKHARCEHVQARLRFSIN

[6] = Clearance in Han Wistar rat at 0.5 mg/kg, iv or 1 mg/kg, po after 24 hrs; type: ADME, organism-based; details: in vivo
Cytochrome P450 2C19 = Cytochrome P450 2C19 (Homo sapiens, UniProt P33261); test: Inhibition of recombinant human CYP2C19 using coumarin based substrate by fluorescence assay; type: ADME
Cytochrome P450 2C19, sequence (P33261 whole entry): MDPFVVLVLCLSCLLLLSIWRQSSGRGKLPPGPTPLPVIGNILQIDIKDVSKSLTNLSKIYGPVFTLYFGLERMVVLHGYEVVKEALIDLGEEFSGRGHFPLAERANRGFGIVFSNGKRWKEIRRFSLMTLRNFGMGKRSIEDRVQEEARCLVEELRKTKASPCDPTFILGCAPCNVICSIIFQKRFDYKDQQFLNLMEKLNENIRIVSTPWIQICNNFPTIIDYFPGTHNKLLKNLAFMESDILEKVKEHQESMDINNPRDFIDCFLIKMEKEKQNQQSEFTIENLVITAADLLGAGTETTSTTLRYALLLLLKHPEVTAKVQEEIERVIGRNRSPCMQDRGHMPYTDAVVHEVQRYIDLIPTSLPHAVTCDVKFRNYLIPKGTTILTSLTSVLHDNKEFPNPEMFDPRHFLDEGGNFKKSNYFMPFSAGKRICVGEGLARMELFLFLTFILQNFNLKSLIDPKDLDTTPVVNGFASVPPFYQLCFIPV

[7] = biological target: Potassium voltage-gated channel subfamily E member 1 (Homo sapiens, UniProt P15382); test: Inhibition of human minK expressed in CHOK1 cells at < 33 uM at -80 mV holding potential by Ionwork-based analysis; type: cell-based
[8] = Fraction unbound in human plasma by equilibrium dialysis based LC-MS analysis; type: ADME, cell-free
[9] = Octanol/Sodium phosphate buffer partition coefficient, log D of compound at pH 7.4 at 1 mg incubated for overnight under shaking condition by LC-MS/MS analysis; type: physicochemical
Blood [10] = test: Effect on arachidonic acid pathway in calcium ionophore A23187-stimulated asthmatic human whole blood assessed as increase in lipoxin level preincubated for 30 mins followed by calcium ionophore A23187 stimulation and measured after 60 mins by LC-MS analysis; type: functional, tissue-based
Blood [11] = test: Effect on arachidonic acid pathway in calcium ionophore A23187-stimulated healthy human whole blood assessed as increase in lipoxin level preincubated for 30 mins followed by calcium ionophore A23187 stimulation and measured after 60 mins by LC-MS analysis; type: functional, tissue-based
[12] = Thermodynamic solubility of compound in pH 7.4 PBS at 1 mg/ml incubated for 24 hrs under shaking condition by LC-MS/MS analysis; type: physicochemical; details: read-out: Therm_solubility
[13] = Fraction unbound in Beagle dog plasma by equilibrium dialysis based LC-MS analysis; type: ADME, cell-free, Canis lupus familiaris
[14] = biological target: T2, Solute carrier organic anion transporter family member 1B1 (Homo sapiens, UniProt Q9Y6L6); test: Inhibition of OATP1B1 (unknown origin) expressed in HEK293 cells measured after 0.5 to 20 mins by scintillation counting analysis; type: ADME, cell-based
T2 sequence (Q9Y6L6 whole entry): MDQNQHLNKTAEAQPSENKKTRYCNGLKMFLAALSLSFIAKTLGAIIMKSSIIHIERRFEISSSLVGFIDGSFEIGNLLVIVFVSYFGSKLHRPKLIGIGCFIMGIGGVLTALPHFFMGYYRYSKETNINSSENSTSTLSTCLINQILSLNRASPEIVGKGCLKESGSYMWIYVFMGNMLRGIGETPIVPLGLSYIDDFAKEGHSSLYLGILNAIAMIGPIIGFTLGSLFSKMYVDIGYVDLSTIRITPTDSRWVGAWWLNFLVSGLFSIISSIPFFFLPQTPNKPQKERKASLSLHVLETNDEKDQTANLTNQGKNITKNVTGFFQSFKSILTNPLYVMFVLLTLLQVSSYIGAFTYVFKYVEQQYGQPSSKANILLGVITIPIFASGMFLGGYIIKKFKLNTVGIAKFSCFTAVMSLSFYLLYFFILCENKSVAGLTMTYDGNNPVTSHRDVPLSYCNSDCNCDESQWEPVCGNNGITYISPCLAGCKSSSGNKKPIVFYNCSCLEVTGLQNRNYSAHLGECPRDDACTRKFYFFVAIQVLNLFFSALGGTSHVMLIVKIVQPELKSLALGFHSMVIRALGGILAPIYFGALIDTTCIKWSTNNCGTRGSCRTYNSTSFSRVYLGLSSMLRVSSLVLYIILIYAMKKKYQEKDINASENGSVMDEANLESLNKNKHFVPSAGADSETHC

[15] = Cmax in po dosed rat at NOAEL measured after 7 days; type: ADME, organism-based; design: route oral; details: in vivo
[16] = biological target: Sodium channel protein type 5 subunit alpha (Homo sapiens, UniProt Q14524); test: Inhibition of human Nav1.5 expressed in CHOK1 cells at < 33 uM at -90 mV holding potential by Ionwork-based analysis; type: cell-based
Sodium channel protein type 5 subunit alpha, sequence (Q14524 whole entry): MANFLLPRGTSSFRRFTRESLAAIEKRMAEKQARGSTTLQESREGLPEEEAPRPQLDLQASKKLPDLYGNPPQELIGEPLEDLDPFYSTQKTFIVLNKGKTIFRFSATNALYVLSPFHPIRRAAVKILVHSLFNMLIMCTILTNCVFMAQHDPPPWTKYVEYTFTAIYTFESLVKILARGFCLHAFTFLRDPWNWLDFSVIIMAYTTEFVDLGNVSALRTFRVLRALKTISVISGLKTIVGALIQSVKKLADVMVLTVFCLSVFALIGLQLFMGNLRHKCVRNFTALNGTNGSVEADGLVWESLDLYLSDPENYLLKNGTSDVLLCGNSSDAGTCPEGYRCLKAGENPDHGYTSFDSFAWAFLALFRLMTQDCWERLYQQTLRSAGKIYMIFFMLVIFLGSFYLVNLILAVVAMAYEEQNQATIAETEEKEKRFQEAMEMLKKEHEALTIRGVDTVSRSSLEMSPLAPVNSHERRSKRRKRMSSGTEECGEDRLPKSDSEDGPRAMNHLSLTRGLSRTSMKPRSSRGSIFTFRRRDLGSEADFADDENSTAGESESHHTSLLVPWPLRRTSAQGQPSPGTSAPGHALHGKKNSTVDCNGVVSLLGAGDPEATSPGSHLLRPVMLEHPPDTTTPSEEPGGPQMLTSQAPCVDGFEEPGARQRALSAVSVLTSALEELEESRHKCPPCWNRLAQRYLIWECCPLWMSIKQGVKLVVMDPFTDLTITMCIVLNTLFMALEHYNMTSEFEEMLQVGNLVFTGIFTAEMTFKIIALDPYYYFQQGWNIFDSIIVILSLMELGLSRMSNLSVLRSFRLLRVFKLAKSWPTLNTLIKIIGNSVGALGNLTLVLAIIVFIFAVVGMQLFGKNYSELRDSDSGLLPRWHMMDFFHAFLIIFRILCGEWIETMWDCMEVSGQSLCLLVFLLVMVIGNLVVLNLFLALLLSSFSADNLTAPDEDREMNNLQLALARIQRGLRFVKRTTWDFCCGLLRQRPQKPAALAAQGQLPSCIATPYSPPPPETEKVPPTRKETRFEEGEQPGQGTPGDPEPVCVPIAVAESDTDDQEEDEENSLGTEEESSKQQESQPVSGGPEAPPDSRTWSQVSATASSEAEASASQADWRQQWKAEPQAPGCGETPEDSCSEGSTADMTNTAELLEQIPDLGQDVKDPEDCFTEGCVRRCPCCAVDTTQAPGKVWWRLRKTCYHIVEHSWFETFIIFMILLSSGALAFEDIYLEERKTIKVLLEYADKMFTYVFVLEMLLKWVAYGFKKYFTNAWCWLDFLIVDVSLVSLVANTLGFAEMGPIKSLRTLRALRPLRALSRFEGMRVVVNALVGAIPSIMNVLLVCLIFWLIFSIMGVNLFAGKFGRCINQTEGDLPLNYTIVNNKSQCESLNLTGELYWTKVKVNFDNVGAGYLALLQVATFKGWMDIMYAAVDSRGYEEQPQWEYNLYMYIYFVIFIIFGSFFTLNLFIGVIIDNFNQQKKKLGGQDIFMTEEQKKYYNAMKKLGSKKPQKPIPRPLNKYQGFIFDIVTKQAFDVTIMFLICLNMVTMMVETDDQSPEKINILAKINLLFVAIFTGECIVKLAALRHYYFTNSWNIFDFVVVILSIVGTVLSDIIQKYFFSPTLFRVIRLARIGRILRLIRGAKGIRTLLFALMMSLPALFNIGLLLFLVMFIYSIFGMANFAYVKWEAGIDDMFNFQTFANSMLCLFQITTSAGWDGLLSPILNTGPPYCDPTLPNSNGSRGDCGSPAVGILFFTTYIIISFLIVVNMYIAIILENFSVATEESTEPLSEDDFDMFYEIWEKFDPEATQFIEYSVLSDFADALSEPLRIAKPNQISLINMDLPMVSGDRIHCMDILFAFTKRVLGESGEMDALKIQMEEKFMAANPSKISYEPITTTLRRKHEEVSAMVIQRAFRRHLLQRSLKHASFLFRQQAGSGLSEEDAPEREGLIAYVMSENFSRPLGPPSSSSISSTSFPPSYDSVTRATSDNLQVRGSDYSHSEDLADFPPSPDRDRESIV

[17] = biological target: T3, Leukotriene C4 synthase (Homo sapiens) (UniProt Q16873); test: Inhibition of LTC4S in healthy human whole blood assessed as inhibition of calcium ionophore A23187 stimulated cysteinyl leukotrienes production preincuabted for 30 mins followed by calcium ionophore stimulation and measured after 10 mins by LC-MS analysis; type: tissue-based
T3 sequence (whole entry): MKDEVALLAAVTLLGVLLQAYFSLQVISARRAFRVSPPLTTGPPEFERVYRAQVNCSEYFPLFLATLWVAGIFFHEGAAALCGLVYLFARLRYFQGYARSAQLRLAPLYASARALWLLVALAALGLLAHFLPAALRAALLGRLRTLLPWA

[18] = Effective half life in cynomolgus monkey at 1 mg/kg, iv or 2 mg/kg, po after 48 hrs; type: ADME, organism-based, Macaca fascicularis; details: in vivo, read-out: t1/2eff (converted)
[19] = Clearance in cynomolgus monkey at 1 mg/kg, iv or 2 mg/kg, po after 48 hrs; type: ADME, organism-based, Macaca fascicularis; details: in vivo
[20] = Toxicity in rat assessed as liver hypertrophy at 100 mg/kg, po after 7 days; type: organism-based; details: in vivo
[21] = Displacement of [3H]-GABA/[3]-muscimol from GABA gated chloride channel in Sprague-Dawley rat cortical synoptic membranes by liquid scintillation analysis
Cytochrome P450 3A4 = Cytochrome P450 3A4 (Homo sapiens, UniProt P08684); test: Inhibition of recombinant human CYP3A4 expressed in Escherichia coli using coumarin based substrate by fluorescence assay; type: ADME
Cytochrome P450 3A4, sequence (P08684 whole entry): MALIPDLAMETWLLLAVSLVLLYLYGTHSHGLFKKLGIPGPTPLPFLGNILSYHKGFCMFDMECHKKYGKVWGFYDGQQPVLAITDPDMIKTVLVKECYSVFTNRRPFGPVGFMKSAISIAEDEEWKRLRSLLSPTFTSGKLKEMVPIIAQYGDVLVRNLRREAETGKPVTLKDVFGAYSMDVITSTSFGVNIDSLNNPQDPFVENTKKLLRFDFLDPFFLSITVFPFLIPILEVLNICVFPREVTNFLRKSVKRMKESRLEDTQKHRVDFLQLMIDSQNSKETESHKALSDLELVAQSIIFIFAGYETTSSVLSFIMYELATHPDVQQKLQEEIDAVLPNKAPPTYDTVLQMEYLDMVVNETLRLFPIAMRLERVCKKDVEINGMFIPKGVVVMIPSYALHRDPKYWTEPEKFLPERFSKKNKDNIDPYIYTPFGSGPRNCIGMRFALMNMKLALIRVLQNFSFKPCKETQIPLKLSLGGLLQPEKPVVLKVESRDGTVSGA

clearance [3]: 1.8 mL/min/kg
bioavailability [4]: 100%
Vd [5]: 5.3 L/kg
pIC50 (Cytochrome P450 1A2): < 4.52
clearance [6]: 2.3 mL/min/kg
pIC50 (Cytochrome P450 2C19): < 4.52
inhibition (INH) [7]: Not Active
fraction unbound [8]: 0.036
logD [9]: 1.1
solubility thermodynamic at 24 h [12]: 2080 µM (≈ 952 µg/mL)
fraction unbound [13]: 0.059
INH [14]: 3.2 µM
inhibition [17]: Active
half-life [18]: 12 h
clearance [19]: 0.6 mL/min/kg
pIC50 [21]: < 4.00
pIC50 (Cytochrome P450 3A4): < 4.52
SMILES: COc1nc(N(CC(C)(C)F)c2cc(Cl)c(F)cc2F)cnc1C(=O)[C@H]1C[C@@H]1C(=O)O [AZD-9898]
Activity (Blood [1]): Dose-dependent effect
Activity [2]: Non-Toxic
Activity (Blood [10]): Dose-dependent effect
Activity (Blood [11]): Dose-dependent effect
Cmax at […] [15]: 349 µM
inhibition (INH) [16]: Not Active
Activity [20]: Non-Toxic
